Consider 23 compounds from US20160130278A1 (TAISHO PHARMACEUTICAL CO., LTD, priority 2013, published 2016).

The target of the assay is T1, human type 1 glycine transporter (GlyT1) (Homo sapiens, UniProt P48067).
T1 construct: T98G cells (glioma cells) expressing human type 1 glycine transporter (GlyT1) were used
T1 sequence (P48067 1-706): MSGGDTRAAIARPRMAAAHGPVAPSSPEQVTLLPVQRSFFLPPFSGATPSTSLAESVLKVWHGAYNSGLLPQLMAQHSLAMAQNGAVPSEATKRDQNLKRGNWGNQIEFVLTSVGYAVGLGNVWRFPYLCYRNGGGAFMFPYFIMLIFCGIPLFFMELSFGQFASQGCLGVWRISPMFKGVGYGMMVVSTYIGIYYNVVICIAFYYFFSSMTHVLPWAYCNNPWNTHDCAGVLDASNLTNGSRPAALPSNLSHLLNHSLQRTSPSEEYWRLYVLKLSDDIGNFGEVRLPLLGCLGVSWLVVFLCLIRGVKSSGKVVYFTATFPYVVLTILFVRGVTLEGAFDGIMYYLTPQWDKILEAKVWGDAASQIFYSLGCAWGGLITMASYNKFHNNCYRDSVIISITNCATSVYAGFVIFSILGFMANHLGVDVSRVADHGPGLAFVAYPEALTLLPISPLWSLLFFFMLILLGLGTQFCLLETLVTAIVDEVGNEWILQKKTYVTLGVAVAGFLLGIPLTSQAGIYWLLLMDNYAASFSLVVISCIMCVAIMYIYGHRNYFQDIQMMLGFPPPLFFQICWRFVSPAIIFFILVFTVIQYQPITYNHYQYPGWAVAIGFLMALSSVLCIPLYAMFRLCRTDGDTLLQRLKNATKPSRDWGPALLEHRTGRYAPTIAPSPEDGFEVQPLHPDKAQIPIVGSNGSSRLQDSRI
Kind of assay: Glycine uptake inhibition experiment ([3H]glycine uptake). The assay is classed as cell-based. Here is the method:
Glycine Uptake Inhibition Experiment
A glycine uptake experiment was conducted in accordance with the method published in Neuron, 8, 927-935, 1992. In the experiment, T98G cells (glioma cells) expressing human type 1 glycine transporter (GlyT1) were used. The T98G cells were seeded in a 96-well plate at 2.0×10^4 cells/well and cultured overnight in a CO2 incubator. The test substance was dissolved in a 100% DMSO solution and then dissolved in a 10 mM HEPES buffer solution (pH 7.4) containing 150 mM sodium chloride, 1 mM calcium chloride, 5 mM potassium chloride, 1 mM magnesium chloride, 10 mM glucose and 0.2% bovine serum albumin. After removing the cell culture medium, the test substance was subjected to a 10-min pretreatment. Subsequently, the test substance and [^3H] glycine (final concentration: 250 nM) were added to the cells and reaction was performed at room temperature for 15 minutes. After the end of the reaction, the extracellular fluid was aspirated with a manifold to remove excess labeled glycine present outside the cells, and then the cells were lysed with a 0.5 M aqueous sodium hydroxide solution. The glycine content in the cells was determined by measuring the radioactivity in the cell lysate with a liquid scintillation counter. Glycine uptake in the presence of 10 μM ALX5407 was defined as non-specific uptake, and the value calculated by subtracting the amount of the non-specific uptake from the total uptake in the absence of 10 μM ALX5407 was defined as specific uptake. In addition, glycine uptake inhibitory activity (IC50 value) was calculated from an inhibition curve at the concentrations of each test substance ranging from 10^−9 to 10^−5 M. It should be noted that ALX5407 is an HCl salt of N-[(3R)-3-([1,1′-biphenyl]-4-yloxy)-3-(4-fluorophenyl)propyl]-N-methylglycine.

As to `O=C(NC(c1cccc(CO)c1)C1(O)CCCC1)c1nccc(C(F)(F)F)c1Cl` (centres unmarked) [Compound 104, 3-chloro-N-{(1-hydroxycyclopentyl)[3-(hydroxymethyl)phenyl]methyl}-4-(trifluoromethyl)pyridine-2-carboxamide], for the setting “GlyT1”, the IC50 (in general, the concentration that gives 50% inhibition) was 920 nM. For the setting “GlyT1”, `O=C(NC(c1cccc(-c2cncnc2)c1)C1(O)CCCC1)c1nccc(C(F)(F)F)c1Cl` (centres unmarked) [Compound 18, 3-chloro-N-{(1-hydroxycyclopentyl)[3-(pyrimidin-5-yl)phenyl]methyl}-4-(trifluoromethyl)pyridine-2-carboxamide] came in with an IC50 of 92 nM.

In turn, `O=C(NC(c1cccc(Cl)c1F)C1(O)CCC(F)(F)CC1)c1cc(C(F)(F)F)ncc1Cl` (single isomer, unassigned) [Compound 219, 5-chloro-N-[(3-chloro-2-fluorophenyl)(4,4-difluoro-1-hydroxycyclohexyl)methyl]-2-(trifluoromethyl)pyridine-4-carboxamide] displayed an IC50 (GlyT1) of 920 nM. The compound `O=C(NC(c1cccc(F)c1Cl)C1(O)CCC(F)(F)CC1)c1ccnc(C(F)(F)F)c1Cl` (single isomer, unassigned) [Compound 178, 3-chloro-N-[(2-chloro-3-fluorophenyl)(4,4-difluoro-1-hydroxycyclohexyl)methyl]-2-(trifluoromethyl)pyridine-4-carboxamide] showed an IC50 (GlyT1) of 130 nM. Same read-out and setting: the result for `O=C(N[C@@H](c1cccc(Br)c1)C1(O)CCCC1)c1nccc(C(F)(F)F)c1Cl` [Compound 33, N-[(S)-(3-bromophenyl)(1-hydroxycyclopentyl)methyl]-3-chloro-4-(trifluoromethyl)pyridine-2-carboxamide] reads 82 nM; that for `O=C(NC(c1ccccc1Cl)C1(O)CCC(F)(F)CC1)c1nccc(C(F)(F)F)c1Cl` (centres unmarked) [Compound 103, 3-chloro-N-[(2-chlorophenyl)(4,4-difluoro-1-hydroxycyclohexyl)methyl]-4-(trifluoromethyl)pyridine-2-carboxamide], 250 nM; that for `O=C(NC(c1cccc(Br)c1)C1(O)CCCCC1)c1nccc(C(F)(F)F)c1Cl` (centres unmarked) [Compound 38, N-[(3-bromophenyl)(1-hydroxycyclohexyl)methyl]-3-chloro-4-(trifluoromethyl)pyridine-2-carboxamide], 60 nM. With `O=C(NC(c1cccc(F)c1Cl)[C@]1(O)CC[C@@H](F)CC1)c1cccc(C(F)(F)F)c1Cl` (single isomer, unassigned) [Compound 246, 2-chloro-N-[(2-chloro-3-fluorophenyl)(cis-4-fluoro-1-hydroxycyclohexyl)methyl]-3-(trifluoromethyl)benzamide], under “GlyT1”, 100 nM corresponded to half-maximal inhibition (IC50).

Under “GlyT1”, `CCn1cc(-c2cccc(C(NC(=O)c3cccc(C(F)(F)F)c3C)C3(O)CCC(F)(F)CC3)c2)cn1` (centres unmarked) [Compound 125, N-{(4,4-difluoro-1-hydroxycyclohexyl)[3-(1-ethyl-1H-pyrazol-4-yl)phenyl]methyl}-2-methyl-3-(trifluoromethyl)benzamide] had an IC50 of 350 nM. This IC50 lies about 3.5-fold higher than the previous one. For `CS(=O)(=O)c1cnc(C(F)(F)F)cc1C(=O)NC(c1ccccc1Cl)C1(O)CCC(F)(F)CC1` (single isomer, unassigned) [Compound 403, N-[(2-chlorophenyl)(4,4-difluoro-1-hydroxycyclohexyl)methyl]-5-(methylsulfonyl)-2-(trifluoromethyl)pyridine-4-carboxamide], the IC50 (human GlyT1) stood at 120 nM. That is a sub-micromolar value. Consider `CCn1cc(-c2cccc(C(NC(=O)c3cccc(C(F)(F)F)c3C)C3(O)CCC(F)(F)CC3)c2)cn1` (single isomer, unassigned) [Compound 149, N-{(4,4-difluoro-1-hydroxycyclohexyl)[3-(1-ethyl-1H-pyrazol-4-yl)phenyl]methyl}-2-methyl-3-(trifluoromethyl)benzamide], for which inhibition (GlyT1) was half-maximal at 2600 nM (IC50). Same read-out and setting: the result for `O=C(NC(c1cccc(-c2cccnc2)c1)C1(O)CCCC1)c1nccc(C(F)(F)F)c1Cl` (single isomer, unassigned) [Compound 24, 3-chloro-N-{(1-hydroxycyclopentyl)[3-(pyridin-3-yl)phenyl]methyl}-4-(trifluoromethyl)pyridine-2-carboxamide] reads 2000 nM. Still for that read-out and setting: the result for `O=C(NC(c1cccc(Cl)c1)[C@]1(O)CC[C@@H](F)CC1)c1ccnc(C(F)(F)F)c1Cl` (stereo partly drawn) [Compound 163, 3-chloro-N-[(3-chlorophenyl)(cis-4-fluoro-1-hydoxycyclohexyl)methyl]-2-(trifluoromethyl)pyridine-4-carboxamide] reads 390 nM. The same measure, in the same setting: the same measure for `O=C(NC(c1cc(Cl)ccn1)[C@]1(O)CC[C@@H](F)CC1)c1nccc(C(F)F)c1Cl` (single isomer, unassigned) [Compound 332, 3-chloro-N-[(4-chloropyridin-2-yl)(cis-4-fluoro-1-hydroxycyclohexyl)methyl]-4-(difluoromethyl)pyridine-2-carboxamide]: 1400 nM. With `O=C(NC(c1cccc(Cl)c1)C1(O)CCCC1)c1nccc(C(F)(F)F)c1Cl` (centres unmarked) [Compound 45, 3-chloro-N-[(3-chlorophenyl)(1-hydroxycyclopentyl)methyl]-4-(trifluoromethyl)pyridine-2-carboxamide], the IC50 (GlyT1) was 90 nM. Turning to `O=C(NC(c1ccc(Cl)nc1)C1(O)CCC(F)(F)CC1)c1nccc(C(F)(F)F)c1Cl` (single isomer, unassigned) [Compound 277, 3-chloro-N-[(6-chloropyridin-3-yl)(4,4-difluoro-1-hydroxycyclohexyl)methyl]-4-(trifluoromethyl)pyridine-2-carboxamide], the IC50 (GlyT1) was determined as 640 nM. Same read-out and setting: the result for `O=C(NC(c1cccc(Br)c1)C1(O)CCCCC1)c1nccc(C(F)(F)F)c1Cl` (single isomer, unassigned) [Compound 42, N-[(3-bromophenyl)(1-hydroxycyclohexyl)methyl]-3-chloro-4-(trilfuoromethyl)pyridine-2-carboxamide] reads 38 nM; that for `O=C(NC(c1ccccc1Cl)C1(O)CCC(F)(F)CC1)c1nccc(C(F)(F)F)c1Cl` (single isomer, unassigned) [Compound 156, 3-chloro-N-[(2-chlorophenyl)(4,4-difluoro-1-hydroxycyclohexyl)methyl]-4-(trifluoromethyl)pyridine-2-carboxamide], 1800 nM; that for `O=C(NC(c1cccc(F)c1Cl)C1(O)CCC(F)(F)CC1)c1nccc(C(F)(F)F)c1Cl` (single isomer, unassigned) [Compound 177, 3-chloro-N-[(2-chloro-3-fluorophenyl)(4,4-difluoro-1-hydroxycyclohexyl)methyl]-4-(trifluoromethyl)pyridine-2-carboxamide], 100 nM. Same read-out and setting: the same measure for “3,4-dichloro-N-[(2-chloro-3-fluorophenyl)(cis-4-fluoro-1-hydroxycyclohexyl)methyl]benzamide [Compound 252]”: 4700 nM. For the compound `CCn1cc(-c2cccc(C(NC(=O)c3nccc(C(F)(F)F)c3Cl)C3(O)CCC(F)(F)CC3)c2)cn1` (centres unmarked) [Compound 86, 3-chloro-N-{(4,4-difluroo-1-hydroxycyclohexyl)[3-(1-ethyl-1H-pyrazol-4-yl)phenyl]methyl}-4-(trifluoromethyl)pyridine-2-carboxamide], 73 nM corresponded to half-maximal inhibition (GlyT1) (IC50).

With `O=C(NC(c1ccccc1Cl)[C@]1(O)CC[C@@H](F)CC1)c1nccc(C(F)(F)F)c1Cl` (single isomer, unassigned) [Compound 197, 3-chloro-N-[(2-chlorophenyl)(cis-4-fluoro-1-hydroxycyclohexyl)methyl]-4-(trifluoromethyl)pyridine-2-carboxamide], the IC50 (GlyT1) amounted to 53 nM. Same read-out and setting: the result for `O=C(NC(c1cccc(Cl)n1)[C@]1(O)CC[C@@H](F)CC1)c1cc(C(F)(F)F)ncc1Cl` (single isomer, unassigned) [Compound 309, 5-chloro-N-[(6-chloropyridin-2-yl)(cis-4-fluoro-1-hydroxycyclohexyl)methyl]-2-(trifluoromethyl)pyridine-4-carboxamide] reads 550 nM.
